Tests used:
Type in all cases: in vivo, Sprague-Dawley rats
hepatic heme oxygenase = hepatic heme oxygenase activity in rats treated with doxorubicin, with or without SnPP; conditions: SnPP (50 µmol/kg b.w.) one day prior to doxorubicin 10 mg/kg b.w.; compared to the group treated with doxorubicin alone
Description: (§1) The efficacy of the products of the invention for their newly discovered utility was established by experiments with three groups of male Sprague-Dawley rats (males, 150-200 grams, 16 per group). The rats were maintained on ad lib water and powdered rat chow (Purina) during the experiments. Group A was untreated, Group B was treated subcutaneously with doxorubicin alone on day 0, and Group C was treated with SnPP one day prior to doxorubicin which was administered on day 0.
(§2) The animals utilized in the tests were acclimated in metabolic cages maintained in a controlled environment with a 12h/12h light/dark cycle.
(§3) The compositions for parenteral administration were freshly prepared for each injection by addition of 0.4 N NaOH (20% v/v) to prepare a solution at pH 12, adjusted to pH 7.5 with 1 NHCl and made to final volume with 0.9% saline. The dosage level per injection was 50 µmol/kg b.w. Control animals were administered an equivalent amount of saline.
(§4) Animals were deprived of food but allowed free access to water for 16 hours prior to sacrifice. […] Cytochrome P-450 content was determined by the methods of Omura and Sato [J. Biol. Chem., 239: 2379 (1966) and 239: 2370 (1966)], and protein concentration by the method of Lowry et al [J. Biol. Chem., 193 265 (1951)] using crystalline bovine serum albumin as standard. […]

ALA synthetase = assay: hepatic ALA synthetase activity in rats treated with doxorubicin, with or without SnPP; conditions: SnPP (50 µmol/kg b.w.) one day prior to doxorubicin 10 mg/kg b.w.; compared to the group treated with doxorubicin alone
Description: as §1, §2, §3, §4

microsomal heme = assay: hepatic microsomal heme content in rats treated with doxorubicin, with or without SnPP
Description: as §1, §2, §3, §4

cytochrome P-450 = assay: hepatic microsomal cytochrome P-450 content in rats treated with doxorubicin, with or without SnPP
Description: as §1, §2, §3, §4

heme metabolism = test system: heme metabolism
Description: as §1
It will be seen that the increase in heme oxygenase activity and decrease in ALA synthetase activity and microsomal content of cytochrome P-450 were at a maximum on day 2 and returned to normal by day 10.
as §2, §3
Animals were deprived of food but allowed free access to water for 16 hours prior to sacrifice. Livers were perfused in situ with ice-cold saline and homogenized in tris-HCL (0.01 M, pH 7.4) buffer containing sucrose (0.25 M). Homogenates (25% w/v) were centrifuged at 9000 g for 20 min, and the resulting mitochondrial pellet was used for the assay of ALA-synthetase activity. The 9000 xg supernatant was centrifuged at 105,000 xg for 60 min in a Beckman L5-50 ultracentrifuge. The microsomal pellet was resuspended in a minimum volume of potassium phosphate buffer (0.1 M, pH 7.4) and the cytosol was used as a source of biliverdin reductase. Cytochrome P-450 content was determined by the methods of Omura and Sato [J. Biol. Chem., 239: 2379 (1966) and 239: 2370 (1966)], and protein concentration by the method of Lowry et al [J. Biol. Chem., 193 265 (1951)] using crystalline bovine serum albumin as standard. […]

[1] = SnPP one day prior to doxorubicin 10 mg/kg b.w., compared to the untreated group
[2] = doxorubicin 10 mg/kg b.w. subcutaneous, measured 2 days after administration, vs untreated, P < 0.05

| decrease in hepatic heme oxygenase activity (hepatic heme oxygenase) | increase in hepatic ALA-synthetase activity (ALA synthetase) | Molecule | levels of microsomal heme (microsomal heme; [1]) | levels of hepatic cytochrome P-450 (cytochrome P-450; [1]) | prevention of doxorubicin-induced variations in heme metabolism (heme metabolism; metalloporphyrin administered one day prior to doxorubicin) | decrease in the microsomal content of heme (microsomal heme; [2]) | decrease in the microsomal content of cytochrome P-450 (cytochrome P-450; [2]) | time of maximum increase in heme oxygenase activity and decrease in ALA synthetase activity and microsomal content of cytochrome P-450 (heme metabolism; rat, in vivo) | time of return to normal of heme oxygenase activity, ALA synthetase activity and microsomal cytochrome P-450 (heme metabolism; rat, in vivo) |
| --- | --- | --- | --- | --- | --- | --- | --- | --- | --- |
| 92% | 35% | tin protoporphyrin-IX [SnPP] | substantially identical to those in the untreated group | substantially identical to those in the untreated group | prevented the occurrence of these variations in heme metabolism | – | – | – | – |
| – | – | COc1cccc2c1C(=O)c1c(O)c3c(c(O)c1C2=O)C[C@@](O)(C(=O)CO)C[C@@H]3O[C@H]1C[C@H](N)[C@H](O)[C@H](C)O1 [doxorubicin, reference compound] | – | – | – | 45% | 18% | 2 days | ≤ 10 days |

From patent EP0333831B1, “USE OF METALLOPORPHYRINS TO REVERSE THE TOXIC EFFECT OF TUMOR THERAPY” (priority 1987, dated 1989)
